In ChEMBL document CHEMBL4043194, “Nrf2 activators from Glycyrrhiza inflata and their hepatoprotective activities against CCl4-induced liver injury in mice” (Bioorg Med Chem, 2017) one finds fold change (FC) data, which are given here for 64 compounds.

For the experiment, the target named is T1, Nuclear factor erythroid 2-related factor 2 (Homo sapiens) (UniProt Q16236).
T1 sequence (whole entry): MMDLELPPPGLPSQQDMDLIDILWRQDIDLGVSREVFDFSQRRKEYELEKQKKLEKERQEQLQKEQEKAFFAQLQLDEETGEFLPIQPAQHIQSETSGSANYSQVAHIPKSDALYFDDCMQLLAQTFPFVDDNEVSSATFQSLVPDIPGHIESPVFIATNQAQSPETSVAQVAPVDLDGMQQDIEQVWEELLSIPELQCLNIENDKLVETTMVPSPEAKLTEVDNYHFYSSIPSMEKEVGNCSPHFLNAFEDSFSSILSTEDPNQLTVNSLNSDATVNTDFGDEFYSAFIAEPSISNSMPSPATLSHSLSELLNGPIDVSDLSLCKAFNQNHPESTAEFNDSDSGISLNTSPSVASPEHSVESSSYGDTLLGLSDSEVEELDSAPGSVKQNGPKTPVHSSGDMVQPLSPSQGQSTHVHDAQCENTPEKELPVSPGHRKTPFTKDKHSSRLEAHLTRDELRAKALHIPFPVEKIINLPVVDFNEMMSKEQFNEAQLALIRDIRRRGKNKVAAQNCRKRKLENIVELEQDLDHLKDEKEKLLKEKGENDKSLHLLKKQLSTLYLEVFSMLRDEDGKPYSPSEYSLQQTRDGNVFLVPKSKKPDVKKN
The experiment can be described thus: Activation of Nrf2 (unknown origin) expressed in human HepG2 cells at 10 uM incubated for 6 hrs by ARE-driven luciferase reporter gene assay relative to untreated control. Type of experiment: cell-based.
As for `COc1cc(O)c(-c2coc3cc(O)ccc3c2=O)c(OC)c1CC=C(C)C`, the fold change (FC) turned out to be 1.87.

As for `CC(C)=CCc1cc([C@@H]2CC(=O)c3cc(CC=C(C)C)c(O)cc3O2)ccc1O`, the fold change (FC) is 1.59.

For `CC1(C)C=Cc2c(ccc(-c3cc4ccc(O)cc4o3)c2O)O1`, the fold change (FC) came out at 1.08.

For the compound `COc1c(/C=C/C(=O)c2ccc(O)cc2)ccc(O)c1CC=C(C)C`, the fold change (FC) was found to be 1.42.

With `CC1(C)C=Cc2c(cc3occ(-c4ccc(O)cc4)c(=O)c3c2O)O1`, the fold change (FC) was determined as 2.17.

As to `CC1(C)C(=O)CC[C@]2(C)[C@H]3C(=O)C=C4[C@@H]5C[C@@](C)(C(=O)O)CC[C@]5(C)CC[C@@]4(C)[C@]3(C)[C@@H](O)C[C@@H]12`, the fold change (FC) is 1.18.

As for `O=C1c2c(O)cc(O)cc2OCC1c1ccc(O)cc1` (centres undefined), the fold change (FC) turned out to be 1.72.

As to `O=c1cc(-c2ccc(O)cc2)oc2cc(O)ccc12`, the fold change (FC) was found to be 1.23.

Take `CC(C)=CCc1cc2c(=O)cc(-c3ccc4c(c3)C=CC(C)(C)O4)oc2cc1O`: the fold change (FC) was determined as 1.03.

Regarding `CC(C)=CCc1cc(-c2cc(=O)c3cc4c(cc3o2)OC(C)(C)C=C4)ccc1O`, the fold change (FC) came out at 1.73.

Consider `CC(C)=CCc1c(O)ccc([C@H]2COc3cc(O)c(CC=C(C)C)c(O)c3C2=O)c1O`, for which the fold change (FC) worked out at 1.98.

Turning to `CC(C)=CCc1cc(-c2cc(=O)c3c(O)c(CC=C(C)C)c(O)cc3o2)ccc1O`, the fold change (FC) came to 2.98.

Turning to `CC(C)=CCc1c(O)ccc2c1oc1c3ccc(O)cc3oc(=O)c21`, the fold change (FC) amounted to 1.81.

In the case of `COc1cc2occ(-c3ccc(O)cc3O)c(=O)c2c(O)c1CC=C(C)C`, the fold change (FC) worked out at 2.36.

For `O=C1C[C@@H](c2cc(O)cc(O)c2)Oc2cc(O)ccc21`, the fold change (FC) was found to be 1.54.

In the case of `COc1ccc(-c2coc3cc(O)ccc3c2=O)cc1`, the fold change (FC) is 2.65.

Consider `CC(C)=CCc1c(O)cc2occ(-c3cc(O)c4c(c3)C=CC(C)(C)O4)c(=O)c2c1O`, for which the fold change (FC) was 1.51.

Regarding `CC1(C)C=Cc2c(ccc(-c3coc4cc(O)cc(O)c4c3=O)c2O)O1`, the fold change (FC) turned out to be 1.47.

Turning to `O=C(/C=C/c1ccc(O)cc1)c1ccc(O)cc1O`, the fold change (FC) is 4.67.

`CC1(C)C=Cc2cc(/C=C/C(=O)c3ccc(O)cc3O)ccc2O1`: the fold change (FC) came to 2.37.

Turning to `CC(C)=CCc1c(O)cc2c(c1O)C(=O)[C@H](c1ccc3c(c1O)C=CC(C)(C)O3)CO2`, the fold change (FC) is 2.33.

Turning to `COc1c(/C=C/C(=O)c2ccc(O)c(O)c2)ccc(O)c1CC=C(C)C`, the fold change (FC) turned out to be 2.07.

Regarding `COc1ccc(C2COc3c(cc(CC=C(C)C)c(O)c3O)C2=O)cc1` (centres undefined), the fold change (FC) is 1.06.

In the case of `CC(C)=CCc1c(O)c(CC=C(C)C)c2occ(-c3ccc(O)cc3)c(=O)c2c1O`, the fold change (FC) amounted to 1.21.

Regarding `CC1(C)C=Cc2c(O)ccc(-c3coc4cc(O)cc(O)c4c3=O)c2O1`, the fold change (FC) is 1.7.

On to `CC1(C)C=Cc2cc(-c3coc4cc(O)cc(O)c4c3=O)cc(O)c2O1`, for which the fold change (FC) was 1.13.

`CC(C)=CCc1c(O)c(CC=C(C)C)c2oc(-c3ccc(O)cc3)cc(=O)c2c1O`: the fold change (FC) worked out at 1.46.

Turning to `CC(C)=CCc1c(O)ccc2c1O[C@H](c1ccc3c(c1)C=CC(C)(C)O3)CC2=O`, the fold change (FC) was 1.4.

For the compound `CC(C)=CCc1c(O)cc(O)c2c1OC[C@@H](c1ccc3c(c1O)C=CC(C)(C)O3)C2=O`, the fold change (FC) is 1.88.

In the case of `CC(C)=CCc1c(O)ccc(C(=O)/C=C/c2ccc(O)c(O)c2)c1O`, the fold change (FC) turned out to be 1.56.

`COc1ccc(-c2coc3c(O)c(O)c(CC=C(C)C)cc3c2=O)c(O)c1`: the fold change (FC) turned out to be 1.42.

Turning to `COC(C)(C)c1cc2cc3c(=O)cc(-c4ccc(O)c(CC=C(C)C)c4)oc3cc2o1`, the fold change (FC) was determined as 1.54.

As for `CC1(CO)C=Cc2c(ccc(-c3coc4cc(O)ccc4c3=O)c2O)O1` (centres undefined), the fold change (FC) was 2.76.

In the case of `CC1(C)[C@@H](O)CC[C@]2(C)[C@H]3CC=C4[C@@H]5C[C@@](C)(C(=O)O)CC[C@]5(C)CC[C@@]4(C)[C@]3(C)CC[C@@H]12`, the fold change (FC) was 1.43.

With `CC(C)=CCc1c(O)ccc(-c2coc3cc(O)cc(O)c3c2=O)c1O`, the fold change (FC) is 2.49.

With `CC(C)=CCc1cc([C@@H]2CC(=O)c3ccc(O)cc3O2)ccc1O`, the fold change (FC) came to 2.2.

`CC(C)=CCc1c(O)cc(O)c2c(=O)c(-c3ccc4c(c3O)C=CC(C)(C)O4)coc12`: the fold change (FC) came to 1.56.

In the case of `O=C1c2ccc(O)cc2OCC1c1ccc(O)c(O)c1` (centres undefined), the fold change (FC) was 2.12.

On to `CC(C)=CCc1c(O)cc2occ(-c3ccc4c(c3)C=CC(C)(C)O4)c(=O)c2c1O`, for which the fold change (FC) is 1.34.

For `CC(C)=CCc1c(O)cc2occ(-c3ccc4c(c3O)C=CC(C)(C)O4)c(=O)c2c1O`, the fold change (FC) was determined as 1.37.

On to `CC1(C)C=Cc2c(ccc3c2OC[C@@H](c2ccc(O)cc2O)C3)O1`, for which the fold change (FC) came out at 2.58.

In the case of `COc1ccc2c(c1)OC[C@H]1c3ccc(O)cc3O[C@@H]21`, the fold change (FC) worked out at 1.23.

For `CC(C)=CCc1cc(/C=C/C(=O)c2ccc(O)c(CC=C(C)C)c2O)ccc1O`, the fold change (FC) was 1.22.

`O=C1C[C@@H](c2ccc(O)cc2)Oc2cc(O)ccc21`: the fold change (FC) worked out at 1.97.

Regarding `O=C(/C=C/c1ccc(O)c(O)c1)c1ccc(O)c(O)c1`, the fold change (FC) was found to be 1.85.

Regarding `CC(C)=CCc1cc([C@@H]2CC(=O)c3c(O)cc(O)c(CC=C(C)C)c3O2)ccc1O`, the fold change (FC) worked out at 1.41.

For the compound `CC(C)=CCc1c(O)ccc(-c2coc3cc(O)c(CC=C(C)C)c(O)c3c2=O)c1O`, the fold change (FC) amounted to 1.05.

In the case of `CC(C)=CCc1c(O)ccc(-c2coc3cc(O)ccc3c2=O)c1O`, the fold change (FC) is 2.15.

Consider `CC1(C)C=Cc2cc(-c3coc4cc(O)ccc4c3=O)c(O)cc2O1`, for which the fold change (FC) amounted to 2.3.

For the compound `CC(C)=CCc1cc(C2CC(=O)c3ccc(O)c(CC=C(C)C)c3O2)ccc1O` (centres undefined), the fold change (FC) came to 1.21.

As for `CC1(C)C=Cc2c(O)ccc(C3COc4cc(O)cc(O)c4C3=O)c2O1` (centres undefined), the fold change (FC) was 1.42.

As for `CC(C)=CCc1cc(/C=C/C(=O)c2ccc(O)cc2O)ccc1O`, the fold change (FC) stood at 1.87.

`CC(C)=CCc1c(O)cc(O)c2c(=O)c(-c3ccc(O)cc3O)coc12`: the fold change (FC) turned out to be 1.78.

For `CC1(C)C=Cc2c(ccc3c(=O)c(-c4ccc(O)cc4O)coc23)O1`, the fold change (FC) was found to be 1.76.

`CC1(C)C=Cc2cc(-c3coc4cc(O)cc(O)c4c3=O)ccc2O1`: the fold change (FC) worked out at 0.76.

Consider `CC(C)=CCc1c(O)ccc(C(=O)/C=C/c2ccc(O)cc2)c1O`, for which the fold change (FC) is 1.91.

Take `CC1(C)C=Cc2c(ccc(-c3coc4cc(O)ccc4c3=O)c2O)O1`: the fold change (FC) worked out at 1.4.

Turning to `O=c1c(-c2ccc(O)cc2)coc2cc(O)cc(O)c12`, the fold change (FC) came out at 1.2.

Take `CC(C)=CCc1c(O)ccc(-c2coc3c(CC=C(C)C)c(O)cc(O)c3c2=O)c1O`: the fold change (FC) was 1.98.

Regarding `COc1ccc(-c2coc3cc(O)ccc3c2=O)c(O)c1`, the fold change (FC) was found to be 2.28.

For the compound `CC(C)=CCc1cc(-c2coc3c(CC=C(C)C)c(O)cc(O)c3c2=O)cc(O)c1O`, the fold change (FC) worked out at 1.2.

For the compound `CC(C)=CCc1cc2c(=O)cc(-c3ccc(O)cc3)oc2cc1O`, the fold change (FC) came out at 1.05.

Consider `CC(C)=CCc1c(O)cc2occ(-c3ccc(O)cc3)c(=O)c2c1O`, for which the fold change (FC) turned out to be 1.49.

As to `CC(C)=CCc1cc(-c2coc3cc(O)cc(O)c3c2=O)cc(O)c1O`, the fold change (FC) is 1.91.
